In publication PMC11001197, “The PII protein interacts with the Amt ammonium transport and modulates nitrate/nitrite assimilation in mycobacteria” (Frontiers in Microbiology, 2024):

Target: M. tb PII (GlnB) (Mycobacterium tuberculosis, UniProt P9WN31)
Sequence (P9WQ65 417-477): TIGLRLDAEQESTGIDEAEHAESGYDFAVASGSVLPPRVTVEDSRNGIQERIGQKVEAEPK
Sequence (P9WN31 whole entry): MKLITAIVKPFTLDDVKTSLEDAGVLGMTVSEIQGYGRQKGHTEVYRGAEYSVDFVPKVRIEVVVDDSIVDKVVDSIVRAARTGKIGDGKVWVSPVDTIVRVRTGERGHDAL

With `O=C(O)CCC(=O)C(=O)O` [2-oxoglutarate] the “Ni-NTA pull-down of AmtCTR by His-PII, SDS-PAGE” value was “PII is able to interact with AmtCTR being negatively modulated by 2-OG”.
